Here are results for ten compounds from US20260274892A1, “MACROCYCLIC BROAD SPECTRUM ANTIBIOTICS” (RQx Pharmaceuticals, Inc., priority 2017, published 2026).

This assay deals with Escherichia coli ATCC 25922. The assay can be described thus: Minimum inhibitory concentration (MIC), CLSI broth micro-dilution, E. coli. Type of assay: cell-based. As to conditions: Escherichia coli. The gist of the method: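 Antibacterial potency is measured as MIC by the CLSI broth dilution method. Bacteria at OD600 0.0005 in Tween-80-supplemented cation-adjusted Mueller Hinton broth face ten twofold compound dilutions for 22 h at 35° C.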
On the technique in general: Dilution methods test growth across graded concentrations, often in twofold steps.

Setting [1] is: ATCC25922, Table 6, cation adjusted Mueller Hinton Broth + 0.002% Tween-80, 35° C., 22 hours.

The MIC is the least concentration at which growth counts as inhibited. For `Cc1nc(-c2ccc(C(C)(C)C)cc2)ncc1C(=O)N[C@@H](CCN)C(=O)N(C)[C@@H]1C(=O)N[C@@H](C)C(=O)N[C@H](C(=O)NCC#N)Cc2ccc(OCCCN)c(c2)-c2cc1ccc2OCCCN` (racemic) [Compound 433, rac-(8S,11S,14S)-3,18-bis(3-aminopropoxy)-N-(cyanomethyl)-11-methyl-14-[methyl-[rac-(2S)-4-amino-2-[[2-(4-tert-butylphenyl)-4-methyl-pyrimidine-5-carbonyl]amino]butanoyl]amino]-10,13-dioxo-9,12-diazatricyclo[13.3.1.12,6]icosa-1(18),2(20),3,5,15(19),16-hexaene-8-carboxamide], the MIC under setting [1] came out at 0.096 µM.

Take `Cc1nc(-c2ccc(OCCC(C)(C)C)cc2)nc(N)c1C(=O)N[C@@H](CCN)C(=O)N(C)[C@@H]1C(=O)N[C@@H](C)C(=O)N[C@H](C(=O)NCC#N)Cc2ccc(OCCCN)c(c2)-c2cc1ccc2OCCCN` (racemic) [Compound 436, rac-(8S,11S,14S)-3,18-bis(3-aminopropoxy)-N-(cyanomethyl)-11-methyl-14-[methyl-[rac-(2S)-4-amino-2-[[4-amino-2-[4-(3,3-dimethylbutoxy)phenyl]-6-methyl-pyrimidine-5-carbonyl]amino]butanoyl]amino]-10,13-dioxo-9,12-diazatricyclo[13.3.1.12,6]icosa-1(18),2(20),3,5,15(19),16-hexaene-8-carboxamide]: under “ATCC25922, 22 h, Table 6, cation adjusted Mueller Hinton Broth + 0.002% Tween-80, 35° C.”, the minimal inhibitory concentration (MIC) turned out to be 0.063 µM.

Take `CNC(=N)NCCOc1ccc2cc1-c1cc(ccc1OCCNC(=N)NC)[C@H](N(C)C(=O)[C@H](CCN)NC(=O)c1c(C)nc(-c3ccc(C(C)(C)C)cc3)nc1C)C(=O)N[C@@H](C)C(=O)N[C@H](C(=O)NCC#N)C2` (racemic) [Compound 441, rac-(8S,11S,14S)-N-(cyanomethyl)-11-methyl-3,18-bis[2-[(N-methylcarbamimidoyl)amino]ethoxy]-14-[methyl-[rac-(2S)-4-amino-2-[[2-(4-tert-butylphenyl)-4,6-dimethyl-pyrimidine-5-carbonyl]amino]butanoyl]amino]-10,13-dioxo-9,12-diazatricyclo[13.3.1.12,6]icosa-1(18),2(20),3,5,15(19),16-hexaene-8-carboxamide]: the minimal inhibitory concentration (MIC) under setting [1] is 0.38 µM.

Consider `Cc1nc(-c2ccc(C(C)(C)C)cc2)ncc1C(=O)N[C@@H](CCN)C(=O)N(C)[C@@H]1C(=O)N[C@@H](C)C(=O)N[C@H](C(=O)NCC#N)Cc2ccc(OCCN(C)C)c(c2)-c2cc1ccc2OCCN(C)C` (racemic) [Compound 442, rac-(8S,11S,14S)-N-(cyanomethyl)-3,18-bis[2-(dimethylamino)ethoxy]-11-methyl-14-[methyl-[rac-(2S)-4-amino-2-[[2-(4-tert-butylphenyl)-4-methyl-pyrimidine-5-carbonyl]amino]butanoyl]amino]-10,13-dioxo-9,12-diazatricyclo[13.3.1.12,6]icosa-1(18),2(20),3,5,15(19),16-hexaene-8-carboxamide], for which, under setting [1], the minimal inhibitory concentration (MIC) was found to be 0.91 µM.

On to `CCCCCCCCc1ccc(C(=O)N[C@@H](CCNS(N)(=O)=O)C(=O)N(C)[C@@H]2C(=O)N[C@@H](C)C(=O)N[C@H](C(=O)NCC#N)Cc3ccc(OCCN)c(c3)-c3cc2ccc3OCCN)c(C)c1` (racemic) [Compound 449, rac-(8S,11S,14S)-3,18-bis(2-aminoethoxy)-N-(cyanomethyl)-11-methyl-14-[methyl-[rac-(2S)-2-[(2-methyl-4-octyl-benzoyl)amino]-4-(sulfamoylamino)butanoyl]amino]-10,13-dioxo-9,12-diazatricyclo[13.3.1.12,6]icosa-1(18),2(20),3,5,15(19),16-hexaene-8-carboxamide], for which, under setting [1], the minimal inhibitory concentration (MIC) is 0.5 µM.

On to `CCCCCCCCc1ccc(C(=O)N[C@@H](CCCNC(N)=O)C(=O)N(C)[C@@H]2C(=O)N[C@@H](C)C(=O)N[C@H](C(=O)NCC#N)Cc3ccc(OCCN)c(c3)-c3cc2ccc3OCCN)c(C)c1` (racemic) [Compound 450, rac-(8S,11S,14S)-3,18-bis(2-aminoethoxy)-N-(cyanomethyl)-11-methyl-14-[methyl-[rac-(2S)-2-[(2-methyl-4-octyl-benzoyl)amino]-5-ureido-pentanoyl]amino]-10,13-dioxo-9,12-diazatricyclo[13.3.1.12,6]icosa-1(18),2(20),3,5,15(19),16-hexaene-8-carboxamide], for which the MIC under setting [1] turned out to be 2.1 µM.

As for `CONCC[C@H](NC(=O)c1cnc(-c2ccc(C(C)(C)C)cc2)nc1C)C(=O)N(C)[C@@H]1C(=O)N[C@@H](C)C(=O)N[C@H](C(=O)NCC#N)Cc2ccc(OCCN)c(c2)-c2cc1ccc2OCCN` (racemic) [Compound 460, rac-(8S,11S,14S)-3,18-bis(2-aminoethoxy)-N-(cyanomethyl)-11-methyl-14-[methyl-[rac-(2S)-2-[[2-(4-tert-butylphenyl)-4-methyl-pyrimidine-5-carbonyl]amino]-4-(methoxyamino)butanoyl]amino]-10,13-dioxo-9,12-diazatricyclo[13.3.1.12,6]icosa-1(18),2(20),3,5,15(19),16-hexaene-8-carboxamide], under setting [1], the minimum inhibitory concentration (MIC) turned out to be 4.1 µM.

As to `Cc1nc(-c2ccc(C(C)(C)C)cc2)nc(C)c1C(=O)N[C@@H](COC(C)(C)C)C(=O)N[C@@H](CCN)C(=O)N(C)[C@@H]1C(=O)N[C@@H](C)C(=O)N[C@H](C(=O)NCC#N)Cc2ccc(OCCN)c(c2)-c2cc1ccc2OCCN` (racemic) [Compound 466, rac-(8S,11S,14S)-3,18-bis(2-aminoethoxy)-N-(cyanomethyl)-11-methyl-14-[methyl-[rac-(2S)-4-amino-2-[[rac-(2S)-3-tert-butoxy-2-[[2-(4-tert-butylphenyl)-4,6-dimethyl-pyrimidine-5-carbonyl]amino]propanoyl]amino]butanoyl]amino]-10,13-dioxo-9,12-diazatricyclo[13.3.1.12,6]icosa-1(18),2(20),3,5,15(19),16-hexaene-8-carboxamide], under setting [1], the MIC came out at 1.5 µM.

With `Cc1nc(-c2ccc(C(C)(C)C)cc2)nc(C)c1C(=O)N[C@H](COC(C)(C)C)C(=O)N[C@@H](CCN)C(=O)N(C)[C@@H]1C(=O)N[C@@H](C)C(=O)N[C@H](C(=O)NCC#N)Cc2ccc(OCCN)c(c2)-c2cc1ccc2OCCN` (racemic) [Compound 468, rac-(8S,11S,14S)-3,18-bis(2-aminoethoxy)-N-(cyanomethyl)-11-methyl-14-[methyl-[rac-(2S)-4-amino-2-[[rac-(2R)-3-tert-butoxy-2-[[2-(4-tert-butylphenyl)-4,6-dimethyl-pyrimidine-5-carbonyl]amino]propanoyl]amino]butanoyl]amino]-10,13-dioxo-9,12-diazatricyclo[13.3.1.12,6]icosa-1(18),2(20),3,5,15(19),16-hexaene-8-carboxamide], the MIC under setting [1] was 1 µM.

Turning to `CCCCCCc1ccc(C(=O)N2C[C@H](N)CC2C(=O)N(C)[C@@H]2C(=O)N[C@@H](C)C(=O)N[C@H](C(=O)NCC#N)Cc3ccc(OCCN)c(c3)-c3cc2ccc3OCCN)c(C)c1` (mixture of isomers) [Compound 481, rac-(8S,11S,14S)-3,18-bis(2-aminoethoxy)-14-[[4-amino-1-(4-hexyl-2-methyl-benzoyl)pyrrolidine-2-carbonyl]-methyl-amino]-N-(cyanomethyl)-11-methyl-10,13-dioxo-9,12-diazatricyclo[13.3.1.12,6]icosa-1(18),2(20),3,5,15(19),16-hexaene-8-carboxamide], the MIC under setting [1] worked out at 2.3 µM.
